Our source for the IC50 values is patent US20240368181A1, “QUINOXALINE DERIVATIVES AND USES THEREOF” (Black Diamond Therapeutics, Inc., priority 2021, published 2024).

Format in all cases: cell-based
For experiment [1], the system named is DMS-114 (FGFR1 overexpression) cells. The experiment can be described thus: Cell proliferation assay (CellTiterGlo), DMS-114 cells. As to conditions: 72 hours, inhibition of cell growth, intracellular ATP (CellTiterGlo). An excerpt:
(§1) The following is a non-limiting example that describes a cell proliferation assay used to determine the biological activity of the compounds of the present disclosure. More specifically, the assay as used to assess the ability of the compounds to inhibit cell proliferation.
(§2) Briefly, SNU-16 (FGFR2-amplification) cells, were resuspended at 18,520c/ml mL in RPMI containing 10% Heat Inactivated FBS, 1% L-glutamine and dispensed in duplicate (463c/well) into 384 well plates. UM-UC-14 (FGFR3-S249C) cells were resuspended at 40.000c/ml mL in RPMI containing 10% Heat Inactivated FBS, 1% L-glutamine and dispensed in duplicate (1000c/well) into 384 well plates. DMS-114 (FGFR1 overexpression) cells and were resuspended at 40,000c/ml mL in RPMI containing 10% Heat Inactivated FBS, 1% L-glutamine and dispensed in duplicate (1000c/well) into 384 well plates. RT-112 (FGFR3-Tacc3 fusion) cells were resuspended at 40,000c/ml mL in RPMI containing 10% Heat Inactivated FBS, 1% L-glutamine and dispensed in duplicate (1000c/well) into 384 well plates. To determine the effect of the compounds of the present disclosure on cell proliferation, SNU-16, UM-UC-14, DMS-114 and RT112 cells were incubated for 72 hours in the presence of vehicle control (DMSO) or a compound of the present disclosure at varying concentrations. Inhibition of cell growth was subsequently determined by luminescent quantification (Envision by Perkin Elmer) of intracellular ATP content using CellTiterGlo (Promega), according to the protocol provided by the manufacturer. To determine the IC50 values, the vehicle-treated cells were normalized as viable cells and analyzed using the CDD Vault software (Collaborative Drug Discovery, Burlingame, CA).

Experiment [2] has as its system SNU-16 (FGFR2-amplification) cells. The experiment can be described thus: Cell proliferation assay (CellTiterGlo), SNU-16 cells. As to conditions: inhibition of cell growth, intracellular ATP (CellTiterGlo).
Excerpt: as §1, §2
On the technique in general: ATP-based viability assays read luminescence as a measure of living cells.

Experiment [3] deals with UM-UC-14 (FGFR3-S249C) cells. In words: Cell proliferation assay (CellTiterGlo), UM-UC-14 cells. As to conditions: UMUC14, 72 h, inhibition of cell growth, intracellular ATP (CellTiterGlo).
Excerpt: as §1, §2

The test system of experiment [4] is RT-112 (FGFR3-Tacc3 fusion) cells. The experiment can be described thus: Cell proliferation assay (CellTiterGlo), RT-112 cells. The following applies: RT112 cells, inhibition of cell growth, intracellular ATP (CellTiterGlo).
Excerpt: as §1, §2

pIC50: −log10 of the molar value.

In the case of `Cc1nc2ccc(Oc3ccc4ncc(-c5cnn(CC6COC6)c5)nc4c3Cl)cc2[nH]1` [Compound 17], the pIC50 in experiment [1] (Homo sapiens) is not above 6.40; in experiment [2] (Homo sapiens, SNU-16, 72 h) it was not above 6.40; in experiment [3], not above 6.40; in experiment [4] (Homo sapiens, RT-112, 72 h), not above 6.40.

As to `Cc1nc2ccc(Oc3ccc4ncc(-c5cnn(CC6CCN(C(=O)C(F)(F)F)CC6)c5)nc4c3Cl)cc2[nH]1` [Compound 18], the pIC50 in experiment [1] (Homo sapiens) is not above 6.40; in experiment [2] (Homo sapiens, SNU-16, 72 h), 7.00 to 7.70; in experiment [3] it was 7.00 to 7.70; in experiment [4] (Homo sapiens, RT-112, 72 h), 7.00 to 7.70.

Take `Cc1nc2ccc(Oc3ccc4ncc(-c5cnn(C)c5)nc4c3Cl)cc2[nH]1` [Compound 19]: the pIC50 in experiment [1] (Homo sapiens) was not above 6.40; in experiment [2] (Homo sapiens, SNU-16, 72 h), 6.40 to 7.00; in experiment [3] it was 6.40 to 7.00; in experiment [4] (Homo sapiens, RT-112, 72 h) it was 7.00 to 7.70.

`Cc1nc2ccc(Oc3ccc4ncc(-c5cnn(CC6CCN(C)C(=O)C6)c5)nc4c3Cl)cc2[nH]1` (centres unmarked) [Compound 20]: the pIC50 in experiment [1] (Homo sapiens) is not above 6.40; in experiment [2] (Homo sapiens, SNU-16, 72 h) it was 7.00 to 7.70; in experiment [3], 7.00 to 7.70; in experiment [4] (Homo sapiens, RT-112, 72 h) it was 7.00 to 7.70.

In the case of `Cc1nc2ccc(Oc3ccc4ncc(-c5cnn(C6CCNCC6)c5)nc4c3Cl)cc2[nH]1` [Compound 21], the pIC50 was 6.40 to 7.00 in experiment [1] (Homo sapiens); 7.00 to 7.70 in experiment [2] (Homo sapiens, SNU-16, 72 h); 7.00 to 7.70 in experiment [3]; more than 7.70 in experiment [4] (Homo sapiens, RT-112, 72 h).

With `Cc1nc2ccc(Oc3ccc4ncc(-c5cnn(CC(O)CO)c5)nc4c3Cl)cc2[nH]1` (centres unmarked) [Compound 22], the pIC50 in experiment [1] (Homo sapiens) is not above 6.40; in experiment [2] (Homo sapiens, SNU-16, 72 h), 7.00 to 7.70; in experiment [3] it was 6.40 to 7.00; in experiment [4] (Homo sapiens, RT-112, 72 h) it was 7.00 to 7.70.

In the case of `Cc1nc2ccc(Oc3ccc4ncc(-c5cnn(CC6CCN(CCO)CC6)c5)nc4c3Cl)cc2[nH]1` [Compound 23], the pIC50 is 6.40 to 7.00 in experiment [1] (Homo sapiens); more than 7.70 in experiment [2] (Homo sapiens, SNU-16, 72 h); more than 7.70 in experiment [3]; more than 7.70 in experiment [4] (Homo sapiens, RT-112, 72 h).

Turning to `Cc1nc2ccc(Oc3ccc4ncc(-c5cnn(CC6CCN(C(C)C)CC6)c5)nc4c3Cl)cc2[nH]1` [Compound 24], the pIC50 in experiment [1] (Homo sapiens) was 6.40 to 7.00; in experiment [2] (Homo sapiens, SNU-16, 72 h) it was more than 7.70; in experiment [3], more than 7.70; in experiment [4] (Homo sapiens, RT-112, 72 h), more than 7.70.

As for `CCC(=O)N1CCC(Cn2cc(-c3cnc4ccc(Oc5ccc6nc(C)[nH]c6c5)c(Cl)c4n3)cn2)CC1` [Compound 25], the pIC50 in experiment [1] (Homo sapiens) is 6.40 to 7.00; in experiment [2] (Homo sapiens, SNU-16, 72 h), more than 7.70; in experiment [3], 7.00 to 7.70; in experiment [4] (Homo sapiens, RT-112, 72 h) it was more than 7.70.

Take `Cc1nc2ccc(Oc3ccc4ncc(-c5cnn(C6CCN(C)C6)c5)nc4c3Cl)cc2[nH]1` (centres unmarked) [Compound 26]: the pIC50 is 6.40 to 7.00 in experiment [1] (Homo sapiens); more than 7.70 in experiment [2] (Homo sapiens, SNU-16, 72 h); 7.00 to 7.70 in experiment [3]; more than 7.70 in experiment [4] (Homo sapiens, RT-112, 72 h).

In the case of `Cc1nc2ccc(Oc3ccc4ncc(-c5cnn(C6CCNC6)c5)nc4c3Cl)cc2[nH]1` (centres unmarked) [Compound 27], the pIC50 in experiment [1] (Homo sapiens) was not above 6.40; in experiment [2] (Homo sapiens, SNU-16, 72 h), 6.40 to 7.00; in experiment [3], 7.00 to 7.70; in experiment [4] (Homo sapiens, RT-112, 72 h), 7.00 to 7.70.

As to `CC(=O)N1CCC(Cn2cc(-c3cnc4ccc(Oc5ccc6nc(C)[nH]c6c5)c(Cl)c4n3)cn2)CC1` [Compound 34], the pIC50 is not above 6.40 in experiment [1] (Homo sapiens); 7.00 to 7.70 in experiment [3]; more than 7.70 in experiment [4] (Homo sapiens, RT-112, 72 h).

`Cc1nc2ccc(Oc3ccc4ncc(-c5cnn(CC6CCNCC6)c5)nc4c3Cl)cc2[nH]1` [Compound 47]: the results for the pIC50 in experiment [1], in experiment [2] (72 hours) and in experiment [4] (72 hours) were not above 6.40, 6.40 to 7.00 and 7.00 to 7.70, respectively.

As for `C=CC(=O)N1CCC(CCn2cc(-c3cnc4ccc(Oc5ccc6nc(C)[nH]c6c5)cc4n3)cn2)CC1` [Compound 54], the negative logarithm of the IC50 (pIC50) was not above 6.40 in experiment [1] (Homo sapiens); 6.40 to 7.00 in experiment [3]; 6.40 to 7.00 in experiment [4] (Homo sapiens, RT-112, 72 h).

With `C=CC(=O)N1CCC(Cn2cc(-c3cnc4ccc(Oc5ccc6nc(C)[nH]c6c5)cc4n3)cn2)CC1` [Compound 56], the pIC50 was not above 6.40 in experiment [1] (Homo sapiens); not above 6.40 in experiment [3]; 6.40 to 7.00 in experiment [4] (Homo sapiens, RT-112, 72 h).

Consider `Cc1nc2ccc(Oc3ccc4ncc(-c5cnn(CC6CCN(C)CC6)c5)nc4c3)cc2[nH]1` [Compound 57], for which the pIC50 in experiment [1] (Homo sapiens) was not above 6.40; in experiment [3] it was 6.40 to 7.00; in experiment [4] (Homo sapiens, RT-112, 72 h) it was not above 6.40.

As for `Cc1nc2ccc(Oc3ccc4ncc(-c5cnn(CC6CCOCC6)c5)nc4c3Cl)cc2[nH]1` [Compound 58], the pIC50 in experiment [1] (Homo sapiens) is 6.40 to 7.00; in experiment [3], 7.00 to 7.70; in experiment [4] (Homo sapiens, RT-112, 72 h), 7.00 to 7.70.

A word on the pIC50: it is the IC50 on a negative log10 scale, so that one unit is a factor of ten.
